Test results published in US7642272B2, “Cannabinoid receptor ligands” (Schering Corporation, priority 2003, dated 2010).

target: T1, recombinant human cannabinoid CB2 receptor (Homo sapiens, UniProt P34972); test: competition with [3H] CP-55,940 for binding to recombinant cannabinoid receptor membranes (CB2); conditions: not given
T1 construct: purchased Receptor Biology RB-HCB2
Procedure: Potential cannabinoid receptor ligands were screened for the ability to compete with [^3H] CP-55,940 for binding to recombinant cannabinoid receptors. Test compounds were serially diluted in Diluent Buffer (50 mM Tris pH 7.1, 1 mM EDTA, 3 mM MgCl2, 0.1% BSA, 10% DMSO, 0.36% methyl cellulose (Sigma M-6385)) from stocks prepared in 100% DMSO. Aliquots (10 μL) were transferred into 96-well microtiter plates. Membrane preparations of recombinant human cannabinoid CB2 receptor (Receptor Biology #RB-HCB2) or recombinant human cannabinoid CB1 receptor (Receptor Biology #RB-HCB1) were diluted to 0.3 mg/mL in Binding Buffer (50 mM Tris pH 7.2, 1 mM EDTA, 3 mM MgCl2, 0.1% BSA). Aliquots (50 μL) were added to each well of the microtiter plate. The binding reactions were initiated by addition of [^3H] CP-55,940 (New England Nuclear # NET 1051; specific activity=180 Ci/mmol) to each well of the microtiter plate. Each 100 μl reaction mixture contained 0.48 nM [^3H] CP-55,940, 15 μg membrane protein in binding buffer containing 1% DMSO and 0.036% methyl cellulose. Following incubation for 2 hours at room temperature, the reactions were filtered through 0.5% polyethylenimine-coated GF/C filter plates (UniFilter-96, Packard) with a TomTec Mark 3U Harvester (Hamden, CT). The filter plate was washed 5 times with binding buffer, rotated 180°, then re-washed 5 times with binding buffer. Bound radioactivity was quantitated following addition of 30 μl of Packard Microscint 20 scintillant in a Packard TopCount NXT microplate scintillation counter. Non-linear regression analysis of the resulting data was performed using Prism 2.0b (GraphPad, San Diego, Calif.).
The activities (potencies) for the compounds of the invention are determined by measuring their Ki values.

T1 sequence (P34972 whole entry): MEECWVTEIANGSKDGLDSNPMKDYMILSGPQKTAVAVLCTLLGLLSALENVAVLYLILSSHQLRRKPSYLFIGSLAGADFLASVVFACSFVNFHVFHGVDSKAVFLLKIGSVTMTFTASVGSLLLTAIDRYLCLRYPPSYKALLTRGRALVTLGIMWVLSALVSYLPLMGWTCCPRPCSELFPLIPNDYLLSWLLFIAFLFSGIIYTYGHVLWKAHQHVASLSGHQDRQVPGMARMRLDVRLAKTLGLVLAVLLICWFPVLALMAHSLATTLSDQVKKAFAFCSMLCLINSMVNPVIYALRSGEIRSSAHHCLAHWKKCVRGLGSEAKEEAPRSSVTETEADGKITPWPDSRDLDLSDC

Structure (SMILES)	Ki
COc1ccc(S(=O)(=O)c2ccc(C(C)C)cc2)c(S(=O)(=O)c2ccccn2)c1 [AG]	< 20 nM
CC(C)c1ccc(S(=O)(=O)c2c(S(=O)(=O)c3ccccc3F)c3ccccc3n2C)cc1 [AO]	< 20 nM
CC(C)c1ccc(Cc2ccc(OC(F)(F)F)cc2S(=O)(=O)c2ccccc2F)cc1 [C]	< 20 nM
CC(C)c1ccc(S(=O)(=O)c2ccc(OC(F)(F)F)cc2S(=O)(=O)c2ccccc2F)cc1 [F]	< 20 nM

same assay, conditions: 0.48 nM [3H] CP-55,940, 15 μg membrane protein, 2 hours at room temperature; read-out: CB2 Ki

Structure (SMILES)	Ki
COc1ccc(S(=O)(=O)c2ccc(C3CC3)cc2)c(S(=O)(=O)c2ccccc2F)c1 [AH]	< 20 nM
CC(C)c1ccc(S(=O)(=O)c2ccc(C(C)C)cc2S(=O)(=O)c2ccccn2)cc1 [AJ]	< 20 nM
CC(C)Oc1ccc(S(=O)(=O)c2ccc(C(C)C)cc2)c(S(=O)(=O)c2ccccc2F)c1 [AK]	< 20 nM
CC(C)c1ccc(S(=O)(=O)c2c(S(=O)(=O)c3ccccn3)c3ccccc3n2C)cc1 [AQ]	< 20 nM
CC(C)c1ccc(S(=O)(=O)c2ccc(OC(F)(F)F)cc2S(=O)(=O)c2ccccn2)cc1 [G]	< 20 nM
O=S(=O)(c1ccc(C2CC2)cc1)c1ccc(Cl)cc1S(=O)(=O)c1ccccc1F [K]	< 20 nM
COCCOc1ccc(S(=O)(=O)c2ccc(C(C)C)cc2)c(S(=O)(=O)c2ccccc2F)c1 [S]	< 20 nM
